Key:
[1] = Inhibition of His tagged BVDV NS5B Cdelta24 RNA dependent RNA polymerase expressed in Escherichia coli Rosetta DE3 preincubated for 30 mins followed by addition of GTP measured after 120 mins by fluorescence analysis; set-up: species or system Bovine viral diarrhea virus 1
[2] = Inhibition of His tagged BVDV NS5B Cdelta24 RNA dependent RNA polymerase K263A mutant expressed in Escherichia coli Rosetta DE3 preincubated for 30 mins followed by addition of GTP measured after 120 mins by fluorescence analysis; set-up: species or system Bovine viral diarrhea virus 1
[3] = Antiviral activity against BVDV NADL infected in MDBK cells assessed as inhibition of virus induced cytopathogenicity after 3 to 4 days by MTT assay; format: functional, cell-based, Bovine viral diarrhea virus 1-NADL; conditions: Bovine viral diarrhea virus isolates and strains
[4] = test system: Vaccinia virus; assay: Antiviral activity against Vaccinia virus Elstree infected in Vero 76 cells after 3 days by crystal violet staining based plaque reduction assay; format: functional, organism-based; conditions: Orthopoxvirus vaccinia, Vero 76, 72 h
[5] = test system: Yellow fever virus; assay: Antiviral activity against Yellow fever virus 17D infected in BHK21 cells assessed as inhibition of virus induced cytopathogenicity after 3 to 4 days by MTT assay; format: functional, cell-based; conditions: BHK-21
[6] = test system: Vesicular stomatitis virus; assay: Antiviral activity against Vesicular stomatitis virus Indiana infected in Vero 76 cells after 2 days by crystal violet staining based plaque reduction assay; format: functional, organism-based; conditions: Vero 76, 48 h
[7] = test system: Coxsackievirus B2; assay: Antiviral activity against CVB-2 infected in Vero 76 cells after 3 days by crystal violet staining based plaque reduction assay; format: functional, organism-based; conditions: Enterovirus B, Vero 76, 72 h
[8] = Cytotoxicity against mock-infected BHK21 cells assessed as reduction in cell viability after 72 hrs by MTT assay; format: cell-based, Mesocricetus auratus, BHK-21; conditions: hamster
[9] = test system: Respiratory syncytial virus; assay: Antiviral activity against Respiratory syncytial virus A2 infected in Vero 76 cells after 5 days by crystal violet staining based plaque reduction assay; format: functional, organism-based; conditions: human respiratory syncytial virus, A2, Vero 76, 120 h
[10] = Cytotoxicity against mock-infected african green monkey Vero 76 cells assessed as reduction in cell viability after 48 to 96 hrs by MTT assay; format: cell-based; conditions: chlorocebus sabaeus, mock-infected Vero 76 cells
[11] = test system: Poliovirus 1; assay: Antiviral activity against Human poliovirus 1 strain Sabin infected in Vero 76 cells after 2 days by crystal violet staining based plaque reduction assay; format: functional, organism-based; conditions: Enterovirus C, Vero 76, 48 h
[12] = Cytotoxicity against mock-infected MDBK cells assessed as reduction in cell viability after 72 hrs by MTT assay; format: cell-based, Bos taurus; conditions: cattle
[13] = test system: Mammalian orthoreovirus 1; assay: Antiviral activity against Reovirus type-1 3651 infected in BHK21 cells assessed as inhibition of virus induced cytopathogenicity after 3 to 4 days by MTT assay; format: functional, cell-based; conditions: Mammalian orthoreovirus 1, 3651, BHK-21
[14] = Selectivity index, ratio of CC50 for MDBK cells to EC50 for […] NADL infected in MDBK cells

Row | Compound | EC50 [3] [µM] | EC50 [4] [µM] | EC50 [7] [µM] | CC50 at 72 h [8] [µM] | CC50 [10] [µM] | CC50 at 72 h [12] [µM] | Ratio CC50/EC50 [14] | also measured
1 | O=[N+]([O-])c1c2cccnc2c(Cl)c2[nH]nnc12 |  |  |  |  |  |  |  | IC50 [1]: 9 µM; IC50 [2]: 140 µM
2 | CC(C)c1nc2c(Cl)c3ncccc3cc2[nH]c1=O | > 100 |  |  |  |  |  |  | 
3 | COc1ccc(-c2nc3cc(/C(C)=N/NC(N)=S)ccc3[nH]2)c(OC)c1 | 0.002 |  |  |  |  |  |  | 
4 | CC(=O)c1ccc(-c2nc3cccnc3[nH]2)cc1 | > 100 |  |  |  |  |  |  | 
5 | N#Cc1ccc(-c2nc3ccncc3[nH]2)cc1 | 9 |  |  |  |  |  |  | 
6 | CC(=O)c1ccc(-c2nc3ccncc3[nH]2)cc1 | 7 |  |  |  |  |  |  | IC50 [1]: 11 µM; IC50 [2]: 15 µM
7 | N#Cc1ccc(/C=N/c2cc3cccnc3c(Cl)c2N)cc1 | 2 |  |  |  |  |  |  | 
8 | Nc1c(/N=C/c2ccc([N+](=O)[O-])cc2)cc2cccnc2c1Cl | 1.7 |  |  |  |  |  |  | IC50 [1]: 0.81 µM; IC50 [2]: 1 µM
9 | COc1nc2cc3cccnc3c(Cl)c2nc1C(C)C | > 100 |  |  |  |  |  |  | 
10 | COc1nc2cc3cccnc3c(Cl)c2nc1-c1cccs1 | 1.3 |  |  |  |  |  |  | IC50 [1]: 0.64 µM; IC50 [2]: 0.96 µM
11 | CCn1c(=O)c(-c2ccccc2)nc2c(Cl)c3ncccc3cc21 | > 100 |  |  |  |  |  |  | 
12 | O=c1[nH]c2cc3cccnc3c(Cl)c2nc1-c1cccs1 | 5 |  |  |  |  |  |  | 
13 | Cn1c(=O)c(-c2cccs2)nc2c(Cl)c3ncccc3cc21 | 2 |  |  |  |  |  |  | 
14 | NS(=O)(=O)c1ccc(-c2nc3cc4cccnc4c(Cl)c3[nH]2)cc1 | > 100 | > 100 | > 100 | > 100 | > 100 | > 100 |  | EC50 [5]: > 100 µM; EC50 [6]: > 100 µM; EC50 [9]: 18 µM; EC50 [11]: 21 µM; EC50 [13]: > 100 µM
15 | N#Cc1ccc(-c2nc3cc4cccnc4c(Cl)c3[nH]2)cc1 | 0.3 |  |  |  |  | > 100 | >333.3 | IC50 [1]: 0.48 µM; IC50 [2]: 0.75 µM
16 | N#Cc1ccc(-c2nc3cc4cccnc4cc3[nH]2)cc1 | 4 | > 100 | > 30 | 21 | 30 | > 100 | >25 | EC50 [5]: > 21 µM; EC50 [6]: > 100 µM; EC50 [9]: > 16 µM; EC50 [11]: > 30 µM; EC50 [13]: 7 µM
17 | FC(F)(F)c1ccc(-c2nc3cc4cccnc4c(Cl)c3[nH]2)cc1 | 2 | > 100 | > 100 | > 100 | > 100 | > 100 | >50 | EC50 [5]: > 56 µM; EC50 [6]: > 100 µM; EC50 [9]: > 100 µM; EC50 [11]: > 100 µM; EC50 [13]: > 100 µM

Row | Compound | EC50 [3] [µM] | EC50 [4] [µM] | EC50 [7] [µM] | CC50 at 72 h [8] [µM] | CC50 [10] [µM] | CC50 at 72 h [12] [µM] | Ratio CC50/EC50 [14] | also measured
18 | CC(=O)c1ccc(-c2nc3cc4cccnc4c(Cl)c3[nH]2)cc1 | 5.8 | > 100 | > 100 | > 100 | > 100 | > 100 | >17.2 | EC50 [5]: > 100 µM; EC50 [6]: > 100 µM; EC50 [9]: > 100 µM; EC50 [11]: > 100 µM; EC50 [13]: 60 µM
19 | COc1ccc(-c2nc3cc4cccnc4c(Cl)c3n2CC2CCCCC2)cc1 | 5 |  |  |  |  | 20 | 4 | 
20 | FC(F)(F)c1ccc(-c2nc3cc4cccnc4cc3[nH]2)cc1 | 7 | > 100 | > 100 | > 100 | > 100 | > 100 | >14.2 | EC50 [5]: > 100 µM; EC50 [6]: > 100 µM; EC50 [9]: > 100 µM; EC50 [11]: 67 µM; EC50 [13]: 52 µM
21 | CSc1ccc(-c2nc3cc4cccnc4c(Cl)c3[nH]2)cc1 | 6.1 | > 100 | > 100 | > 100 | > 100 | > 100 | >16.4 | EC50 [5]: > 100 µM; EC50 [6]: > 100 µM; EC50 [9]: > 100 µM; EC50 [11]: > 100 µM; EC50 [13]: 100 µM
22 | COc1ccc(-c2nc3cc4cccnc4cc3[nH]2)c(OC)c1 | 3.4 | 16 | 12 | 45 | 90 | > 100 | >29.4 | EC50 [5]: > 45 µM; EC50 [6]: > 90 µM; EC50 [9]: > 45 µM; EC50 [11]: 16 µM; EC50 [13]: 38 µM
23 | Clc1c2ncccc2cc2nc(-c3ccoc3)[nH]c12 | 2 |  |  |  |  | > 100 | >50 | 
24 | O=c1cnc2c(Cl)c3ncccc3cc2[nH]1 | > 100 |  |  |  |  |  |  | 
25 | COc1ccc(-c2nc3cc4cccnc4c(Cl)c3[nH]2)c(OC)c1 | 6.3 | 13 | 29 | > 100 | > 100 | > 100 | >15.9 | EC50 [5]: 95 µM; EC50 [6]: > 100 µM; EC50 [9]: 10 µM; EC50 [11]: 41 µM; EC50 [13]: > 100 µM
26 | O=[N+]([O-])c1ccc(-c2nc3cc4cccnc4c(Cl)c3n2CC2CCCCC2)cc1 | 5 | > 20 | > 20 | 16 | 20 | 33 | >6.6 | EC50 [5]: > 13 µM; EC50 [6]: > 20 µM; EC50 [9]: > 20 µM; EC50 [11]: > 20 µM; EC50 [13]: ≥ 16 µM
27 | Fc1ccc(-c2nc3cc4cccnc4cc3[nH]2)c(F)c1 | 6 | > 100 | 35 | > 100 | > 100 | > 100 | >16.7 | EC50 [5]: > 100 µM; EC50 [6]: > 100 µM; EC50 [9]: > 58 µM; EC50 [11]: > 100 µM; EC50 [13]: 10 µM
28 | C[C@@]1(O)[C@H](O)[C@@H](CO)O[C@H]1n1ccc(N)nc1=O |  |  |  | > 100 |  |  |  | 
29 | C[C@@]1(O)[C@H](O)[C@@H](CO)O[C@H]1n1cnc2c(=O)[nH]c(N)nc21 [2'-B-METHYL-GUANOSINE] |  |  |  | > 10 |  | > 10 | >9.1 | 
30 | C#C[C@@]1(O)[C@H](O)[C@@H](CO)O[C@H]1n1ccc(N)nc1=O [2'-ETHYNYL-D-CYTIDINE] |  |  | 27 |  | > 100 |  |  | 
31 | O=c1cnn([C@@H]2O[C@H](CO)[C@@H](O)[C@H]2O)c(=O)[nH]1 [6-AZAURIDINE] |  |  |  |  | > 12.5 |  |  | 
32 | Nc1nc2c(ncn2COCCO)c(=O)[nH]1 [ACYCLOVIR] |  | 1.5 |  |  | > 100 |  |  | 
33 | COc1c(C)c2c(c(O)c1C/C=C(\C)CCC(=O)O)C(=O)OC2 [MYCOPHENOLIC ACID] |  |  |  |  | > 12.5 |  |  | 
34 | NC(=O)c1ncn([C@@H]2O[C@H](CO)[C@@H](O)[C@H]2O)n1 [RIBAVIRIN] | 1.3 |  |  |  |  | 5 | 3.8 | 
